Patent US20080261994A1, “CYCLOPROPANE COMPOUNDS AND PHARMACEUTICAL USE THEREOF” (Japan Tobacco Inc., priority 2003, published 2008)
Where two headings read alike, the source gives them in different places.

Columns and labels:
Assay type in all cases: biochemical
aggrecanase-1 = biological target: T1, aggrecanase-1 (Homo sapiens, UniProt O75173); experiment: Aggrecanase-1 inhibitory action (Particle Assay, GAG release from aggrecan-containing polyacrylamide particles)
T1 sequence (O75173 213-837): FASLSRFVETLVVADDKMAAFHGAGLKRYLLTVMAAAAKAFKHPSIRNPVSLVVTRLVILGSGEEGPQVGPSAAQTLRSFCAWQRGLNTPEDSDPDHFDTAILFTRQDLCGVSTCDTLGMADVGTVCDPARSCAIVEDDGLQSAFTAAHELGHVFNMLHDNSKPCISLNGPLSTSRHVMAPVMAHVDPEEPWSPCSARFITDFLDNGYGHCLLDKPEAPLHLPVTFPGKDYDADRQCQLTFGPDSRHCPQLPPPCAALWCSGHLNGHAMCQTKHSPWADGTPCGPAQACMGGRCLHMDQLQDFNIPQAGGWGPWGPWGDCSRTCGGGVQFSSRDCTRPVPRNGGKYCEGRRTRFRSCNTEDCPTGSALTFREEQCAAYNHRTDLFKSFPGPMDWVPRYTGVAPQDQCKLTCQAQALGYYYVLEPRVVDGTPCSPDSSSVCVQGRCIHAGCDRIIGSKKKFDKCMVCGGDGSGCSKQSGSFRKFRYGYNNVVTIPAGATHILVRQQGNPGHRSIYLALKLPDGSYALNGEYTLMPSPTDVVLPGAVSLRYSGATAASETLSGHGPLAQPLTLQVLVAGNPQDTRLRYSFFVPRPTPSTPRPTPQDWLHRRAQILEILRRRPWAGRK
Description: Particle Assay was used for determination of aggrecanase activity.
(§1) The enzyme and substrate were diluted with Tris-HCl buffer, and test compounds were diluted with dimethyl sulfoxide (DMSO).
Test compounds and the enzyme were added into 96-well plate, and polyacrylamide particles containing aggrecan were added as a substrate and the mixture was incubated at 37° C. for 15 hr.
After incubation, the supernatant was transferred to another plate, and mixed with 1,9-dimethylmethylene blue. The absorbence at 595 nm was measured to quantify the amount of glycosaminoglycan (GAG) released in the reaction supernatant. Whale chondroitin sulfate was used as the standard of GAG. The inhibitory activity of the compound in each well (%) was calculated based on the values of enzyme-free well and inhibitor-free well. The inhibitory activity of the compound was represented as […] (μM).

Recombinant Human MMP-13 = biological target: T2, Recombinant Human MMP-13 (Homo sapiens, UniProt P45452); experiment: MMP-13 inhibitory activity (MMP-13 specific fluorescent substrate with quencher)
T2 construct: purchased R&D systems 511-MM
Description: Inhibitory activity of tested compounds on MMP-13 was measured using MMP-13 specific fluorescent substrate with quencher.
as §1
Test compounds and the enzyme (Recombinant Human MMP-13: R&D systems, 511-MM) were added into 96-well plate. The reaction was initiated by adding synthetic substrate (7-MCA-Pro-CHA-Gly-NVal-His-Ala-DPA: enzyme systems products, Met-06) into the plate. After incubation at 25° C. for 1 h, the reaction was terminated by addition of reaction terminating solution containing acetic acid. Fluorescence intensity of each well was measured (Ex: 325 nm, […] 405 nm) and the MMP-13 inhibitory activity of the compound in each well (%) was calculated based on the values of enzyme-free well and inhibitor-free well. The inhibitory activity of the compound was represented as IC50 (μM).

MMP-1 = biological target: T3, MMP-1 (Homo sapiens, UniProt P03956); experiment: MMP-1 inhibitory action (Type I collagen Activity Measurement kit, FITC-labeled collagen type I)
T3 sequence (P03956 100-469): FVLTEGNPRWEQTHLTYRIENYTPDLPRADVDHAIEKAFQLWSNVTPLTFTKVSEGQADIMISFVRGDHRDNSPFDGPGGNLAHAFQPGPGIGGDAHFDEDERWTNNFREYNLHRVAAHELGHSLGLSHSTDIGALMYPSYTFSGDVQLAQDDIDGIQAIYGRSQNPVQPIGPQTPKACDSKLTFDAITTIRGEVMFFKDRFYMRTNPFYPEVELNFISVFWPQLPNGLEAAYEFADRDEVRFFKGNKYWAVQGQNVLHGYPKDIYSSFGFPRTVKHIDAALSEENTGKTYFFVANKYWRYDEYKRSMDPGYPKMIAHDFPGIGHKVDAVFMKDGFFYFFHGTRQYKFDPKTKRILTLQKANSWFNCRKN
Description: For MMP-1 Assay, Type I collagen Activity Measurement kit (YAGAI YU-72013) modified to a 96-well plate format was used.
The principle of the kit is based on the property of collagen that becomes soluble in ethanol after being cleaved by MMP-1.
as §1
The enzyme and test compounds were added into 96-well plate, and fluorescein isothiocianate (FITC)-labeled collagen type I was added as a substrate and the mixture was incubated at 37° C. for 3 hr.
The reaction was terminated by addition of Tris-HCl buffer containing ethanol. After centrifugation, the supernatant containing denatured substrate was transferred to another 96-well plate. The collagenase activity of MMP-1 was determined by measuring FITC fluorescence intensity (excitation wavelength 485 nm, emission wavelength 530 nm) of each well. The inhibitory activity of the compound in each well (%) was calculated based on the values of enzyme-free well and inhibitor-free well. The inhibitory activity of the compound was represented as IC50 (μM).

[1] = Experimental Example 1, read-out: IC50 AG1
[2] = Experimental Example 3, read-out: IC50 MMP13
[3] = Experimental Example 2, read-out: IC50 MMP1
[4] = aggrecanase-1 inhibitory action, read-out: IC50 AG1 (Experimental Example 1)
[5] = Recombinant Human MMP-13, fluorescent substrate, 25° C. for 1 h, read-out: IC50 MMP13 (Experimental Example 3)
[6] = MMP-1 inhibitory action, FITC-labeled collagen type I, 37° C. for 3 hr, read-out: IC50 MMP1 (Experimental Example 2)

SMILES | IC50 (aggrecanase-1; [1]) [nM] | IC50 (Recombinant Human MMP-13; [2]) [nM] | IC50 (MMP-1; [3]) [nM] | IC50 (aggrecanase-1; [4]) [nM] | IC50 (Recombinant Human MMP-13; [5]) [nM] | IC50 (MMP-1; [6]) [nM]
CCC1[C@H](c2ccccc2)[C@]1(NS(=O)(=O)c1ccc(-c2cc(C(F)(F)F)on2)s1)C(=O)O (stereo partly drawn) [Example 2-328] | < 100 | < 100 | < 100 | – | – | –
CN(C)c1cccc(C2CC2(NS(=O)(=O)c2ccc(-c3ccc(Cl)cc3)s2)C(=O)O)c1 (stereo not drawn) [Example 1-133] | – | – | – | < 100 | < 100 | ≥ 1000
O=C(O)C1(NS(=O)(=O)N2CCN(c3ccc(C(F)(F)F)cn3)CC2)CC1c1ccccc1 (stereo not drawn) [Example 2-68] | – | – | – | ≥ 1000 | < 100 | ≥ 10000
COCC(=O)NCC1(c2ccccc2)CC1(NS(=O)(=O)c1ccc(-c2ccc(Cl)cc2)s1)C(=O)O (stereo not drawn) [Example 2-398] | < 1000 | < 1000 | ≥ 10000 | – | – | –
C[C@]1(c2ccccc2)C[C@@]1(NS(=O)(=O)c1ccc(-c2cc(C(F)(F)F)on2)s1)C(=O)O [Example 2-6, (1S,2R)-2-methyl-2-phenyl-1-[5-(5-trifluoromethyl-isoxazol-3-yl)-thiophene-2-sulfonylamino]-cyclopropanecarboxylic acid] | – | – | – | < 100 | < 1000 | ≥ 1000
CC(C)NC(=O)c1ccc(S(=O)(=O)NC2(C(=O)O)CC2c2ccccc2)s1 (stereo not drawn) [Example 2-94] | – | – | – | ≥ 10000 | ≥ 10000 | ≥ 10000
CC1CCN(c2ccc(S(=O)(=O)N[C@@]3(C(=O)O)C[C@@H]3c3ccccc3)s2)CC1 [Example 2-256] | – | – | – | ≥ 1000 | ≥ 10000 | ≥ 10000
CCCC(=O)NCC1(c2ccccc2)CC1(NS(=O)(=O)c1ccc(-c2ccc(Cl)cc2)s1)C(=O)O (stereo not drawn) [Example 2-377] | < 1000 | < 1000 | ≥ 1000 | – | – | –
CC1[C@H](c2ccccc2)[C@]1(NS(=O)(=O)c1ccc(-c2cc(C(F)(F)F)on2)s1)C(=O)NO (stereo partly drawn) [Example 2-323] | ≥ 1000 | < 100 | ≥ 1000 | – | – | –
O=C(Cc1ccc([C@@H]2C[C@]2(NS(=O)(=O)c2ccc(-c3cc(C(F)(F)F)on3)s2)C(=O)O)cc1)N1CCOCC1 [Example 2-291] | < 100 | < 100 | < 1000 | – | – | –
C[C@]1(c2ccccc2)C[C@@]1(NS(=O)(=O)c1ccc(-c2cc(CF)sn2)s1)C(=O)O [Example 2-121] | – | – | – | < 100 | < 100 | < 1000

Now from value to molecule:

IC50 (aggrecanase-1; [1]) [nM] | IC50 (Recombinant Human MMP-13; [2]) [nM] | IC50 (MMP-1; [3]) [nM] | IC50 (aggrecanase-1; [4]) [nM] | IC50 (Recombinant Human MMP-13; [5]) [nM] | IC50 (MMP-1; [6]) [nM] | SMILES
< 100 | < 100 | < 100 | – | – | – | CC(=O)c1cnn(-c2ccc(S(=O)(=O)N[C@@]3(C(=O)O)C(C)[C@@H]3c3ccccc3)s2)c1 (stereo partly drawn) [Example 2-546]
< 100 | < 100 | < 1000 | – | – | – | CC1[C@](C)(c2ccccc2)[C@]1(NS(=O)(=O)c1ccc(-c2cc(C(F)(F)F)on2)s1)C(=O)O (stereo partly drawn) [Example 2-623]
< 1000 | < 100 | < 1000 | – | – | – | O=C(NO)C1(NS(=O)(=O)c2ccc(-c3ccc(Cl)cc3)s2)C2Cc3ccccc3C21 (stereo not drawn) [Example 2-447]
< 100 | < 100 | < 1000 | – | – | – | COCc1cc(-c2ccc(S(=O)(=O)N[C@@]3(C(=O)O)C(C)[C@@H]3c3ccccc3)s2)no1 (stereo partly drawn) [Example 2-404]
≥ 1000 | ≥ 1000 | ≥ 10000 | – | – | – | CC1[C@H](c2ccccc2)[C@]1(NS(=O)(=O)N1CCN(c2nc3ccccc3o2)CC1)C(=O)O (stereo partly drawn) [Example 2-464]
< 100 | < 100 | ≥ 1000 | – | – | – | C[C@]1(c2ccccc2)C[C@@]1(NS(=O)(=O)c1ccc(-c2ccc3c(c2)OCO3)s1)C(=O)O [Example 2-449]
